# Test results reported in patent US11447486B2, “2-amino-benzimidazole derivatives and their use as 5-lipoxygenase and/or prostaglandin E synthase inhibitors” (INSTITUT PASTEUR KOREA, priority 2014, dated 2022).
# Columns and labels:
# [1] = tested on: Rat basophilic leukemia (RBL) cells; assay: LTB4 secretion assay in RBL (rat basophilic leukemia cells); type: cell-based; conditions: Rattus norvegicus, RBL
# Method: Rat basophilic leukemia (RBL) cells (ATCC, Cat #CRL-2256) were maintained in EMEM (ATCC, Cat #30-2003) supplemented with 15% FBS. The day before RBL assay, cells were seeded at a concentration of 2×10^4 cells per well in 96-well plates. The media was replaced with 100 ul of EMEM supplemented with 0.5% FBS and compounds in dose response(5 nM to 100 uM) were added. After 15 min of pre-incubation at 37° C., arachidonic acid and calcium ionophore (A23187) were added to give a final concentration of 2.5 uM and 5 uM, respectively. After a further 10 min incubation at 37° C., culture supernatant was transferred and quantification of LTB4 was done with a Leukotriene B4 EIA kit (Cayman, Cat #520111) as instructed.
# human 5-LOX = target: T1, human 5-LOX (Homo sapiens, UniProt P09917); assay: 5-LOX enzyme activity, fluorescence method (5-HPETE, H2DCFDA); type: biochemical; conditions: read-out: 5-LO (IC50)
# T1 construct: purchased Cayman 60402; host or cells: insect cells (lysate)
# T1 sequence (P09917 1-674): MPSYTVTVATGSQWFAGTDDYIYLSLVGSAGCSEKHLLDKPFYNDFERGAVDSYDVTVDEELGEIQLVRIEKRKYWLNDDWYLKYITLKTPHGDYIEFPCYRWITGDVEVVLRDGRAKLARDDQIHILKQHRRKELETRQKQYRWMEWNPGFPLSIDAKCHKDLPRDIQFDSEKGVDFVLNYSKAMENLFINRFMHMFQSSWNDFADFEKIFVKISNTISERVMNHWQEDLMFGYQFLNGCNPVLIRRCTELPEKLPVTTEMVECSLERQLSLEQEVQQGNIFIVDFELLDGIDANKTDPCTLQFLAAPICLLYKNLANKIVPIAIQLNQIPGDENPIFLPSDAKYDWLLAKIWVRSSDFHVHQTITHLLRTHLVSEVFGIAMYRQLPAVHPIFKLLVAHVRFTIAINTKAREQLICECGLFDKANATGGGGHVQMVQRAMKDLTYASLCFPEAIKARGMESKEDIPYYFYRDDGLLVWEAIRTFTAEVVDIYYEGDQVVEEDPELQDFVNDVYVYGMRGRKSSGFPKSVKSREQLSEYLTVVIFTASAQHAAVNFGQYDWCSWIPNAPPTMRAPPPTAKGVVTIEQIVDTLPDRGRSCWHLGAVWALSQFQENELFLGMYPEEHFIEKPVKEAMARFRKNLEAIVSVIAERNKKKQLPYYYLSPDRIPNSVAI
# Method: The activity of compounds against 5-LOX were determined by measuring LTB4 (leukotriene B4) levels and/or by a fluorescence method. Both approaches are outlined in more detail below;
# The compound, in a dose response manner(0.5 nM to 10 uM), and enzyme mixture was pre-incubated for 5 minutes, and the enzymatic reaction was initiated by addition of ATP and arachidonic acid to a final concentration of 100 uM and 3 uM, respectively. […] All steps were carried out at room temperature.
SMILES,EC50 [1] [µM],IC50 (human 5-LOX) [µM]
COC(c1ccc(CNc2nc3ccc(N)cc3[nH]2)cc1)c1ccccn1 (stereo not shown) [Compound 181],> 20,< 1
Cn1c(NCc2ccc(Oc3ccc(Cl)cc3)cc2)nc2ccc(N3CCC3)cc21 [Compound 182],10 to 20,< 1
CN(C)c1nc2cc(N3CCCC(Oc4ccc(OC(F)(F)F)cc4)C3)ccc2[nH]1 (stereo not shown) [Compound 183],> 20,< 1
CCOC(c1ccc(CNc2nc3ccc(N)cc3[nH]2)cc1)c1ccccn1 (stereo not shown) [Compound 188],> 20,< 1
COC(c1ccc(CNc2nc3ccc(NC4COC4)cc3[nH]2)cc1)c1ccccn1 (stereo not shown) [Compound 189],> 20,< 1
CC(C)(C(O)c1ccc(CNc2nc3ccc(N)cc3[nH]2)cc1)C(F)(F)F (stereo not shown) [Compound 198],10 to 20,< 1
Cn1nccc1-c1ccc(CNc2nc3cc(NC4COC4)ccc3[nH]2)cc1 [Compound 201],> 20,< 1
CN(C)c1nc2ccc(NCc3ccc(-c4cccc(=O)[nH]4)cc3)cc2[nH]1 [Compound 221],> 20,< 1
Nc1ccc2[nH]c(NCc3ccc(N4CCOC(COc5ccc(OC(F)(F)F)cc5)C4)nc3)nc2c1 (stereo not shown) [Compound 222],10 to 20,< 1
Nc1ccc2nc(NCC(=O)O)n(Cc3ccc(Oc4ccc(Cl)cc4)cc3)c2c1 [Compound 225],> 20,< 1
CN(C)c1nc2cc(NCc3ccc(-c4nc(C(=O)O)co4)cc3)ccc2[nH]1 [Compound 228],> 20,< 1
CN(C)c1nc2cc(NCc3ccc(CC(N)=O)cc3)ccc2[nH]1 [Compound 232],> 20,< 1
CN(C)c1nc2ccc(NCc3ccc(C4(C(N)=O)CCOCC4)cc3)cc2[nH]1 [Compound 237],> 20,< 1
Nc1ccc2nc(NCCO)n(Cc3ccc(Oc4ccc(Cl)cn4)cc3)c2c1 [Compound 250],< 10,< 1
N#CCCNc1nc2ccc(N)cc2n1Cc1ccc(Oc2ccc(Cl)cc2)cc1 [Compound 252],< 10,< 1
Nc1ccc2nc(N)n(Cc3ccc(OCc4ccc(Cl)cn4)cc3)c2c1 [Compound 254],< 10,< 1
Nc1ccc2nc(N)n(Cc3ccc(Oc4ccc(Cl)cn4)c(Cl)c3)c2c1 [Compound 255],< 10,< 1
OCCn1c(NCc2ccc(Oc3ccc(Cl)cn3)cc2)nc2ccc(NC3COC3)cc21 [Compound 257],< 10,< 1
CC(C)n1c(NCc2ccc(Oc3ccc(Cl)cn3)cc2)nc2ccc(N)cc21 [Compound 258],< 10,< 1
Nc1ccc2nc(NCc3ccc(Oc4ccc(Cl)cn4)cc3)n(CCO)c2c1 [Compound 259],< 10,< 1
CC(Nc1nc2ccc(N)cc2n1C)c1ccc(Oc2ccc(Cl)cn2)cc1 (stereo not shown) [Compound 260],< 10,< 1
Nc1ccc2nc(NCc3ccc(Oc4ccc(Cl)cn4)cc3)n(C3COC3)c2c1 [Compound 261],< 10,< 1
N#CCCNc1nc2ccc(NC3COC3)cc2n1Cc1ccc(Oc2ccc(Cl)cc2)cc1 [Compound 262],< 10,> 10
COCCn1c(NCc2ccc(Oc3ccc(Cl)cn3)cc2)nc2ccc(N)cc21 [Compound 263],10 to 20,< 1
Nc1ccc2nc(NCCC(F)(F)F)n(Cc3ccc(Oc4ccc(Cl)cc4)cc3)c2c1 [Compound 264],< 10,< 1

# Continued, values first:
EC50 [1] [µM],IC50 (human 5-LOX) [µM],SMILES
< 10,< 1,CCOC(=O)CN(c1ccc(F)cc1)c1ccc(CNc2ccc3nc(N(C)C)[nH]c3c2)cc1 [Compound 185]
< 10,< 1,Nc1ccc2nc(NCc3coc(Cc4ccc(Cl)cc4)n3)[nH]c2c1 [Compound 186]
< 10,< 1,CC(C)(CO)Nc1nc2ccc(N)cc2n1Cc1ccc(Oc2ccc(Cl)cc2)cc1 [Compound 187]
< 10,< 1,Cn1c(NCc2ccc(Oc3ccc(Cl)cc3)cc2)nc2ccc(N3CC(O)C3)cc21 [Compound 192]
< 10,< 1,COC(=O)c1ccc(OC2CCN(c3ccc4[nH]c(N(C)C)nc4c3)C2)cc1 (stereo not shown) [Compound 194]
< 10,< 1,Cn1nccc1-c1ccc(CNc2nc3cc(N)ccc3[nH]2)cc1 [Compound 200]
< 10,< 1,CC(C)(C(=O)c1ccc(CNc2nc3ccc(N)cc3[nH]2)cc1)C(F)(F)F [Compound 205]
< 10,< 1,Nc1ccc2nc(N3CCC(O)C3)n(Cc3ccc(Oc4ccc(Cl)cc4)cc3)c2c1 (stereo not shown) [Compound 206]
< 10,< 1,CCOC(=O)CNc1nc2ccc(N)cc2n1Cc1ccc(Oc2ccc(Cl)cc2)cc1 [Compound 207]
< 10,< 1,CC(C)(O)Cn1c(NCc2ccc(Oc3ccc(Cl)cn3)cc2)nc2ccc(NC3COC3)cc21 [Compound 208]
< 10,< 1,CC(C)(O)Cn1c(NCc2ccc(Oc3ccc(Cl)cc3)cc2)nc2ccc(N)cc21 [Compound 209]
< 10,< 1,Cn1c(NCc2ccc(Oc3ccc(Cl)cn3)cc2)nc2ccc(N)cc21 [Compound 210]
< 10,< 1,CN(C)c1nc2ccc(NCc3ccc(N(CC(N)=O)c4ccc(F)cc4)cc3)cc2[nH]1 [Compound 212]
< 10,< 1,CN(C)c1nc2ccc(NCc3ccc(N(Cc4ncco4)c4ccc(F)cc4)cc3)cc2[nH]1 [Compound 213]
< 10,< 1,CN(C)c1nc2cc(NCc3coc(Nc4ccc(Cl)cc4)n3)ccc2[nH]1 [Compound 214]
< 10,< 1,OCC(O)CNc1ccc2nc(NCc3ccc(Oc4ccc(Cl)cc4)cc3)[nH]c2c1 (stereo not shown) [Compound 215]

EC50 [1] [µM],IC50 (human 5-LOX) [µM],SMILES
< 10,< 1,CN(C)c1nc2ccc(NCc3ccc(N(Cc4ncc[nH]4)c4ccc(F)cc4)cc3)cc2[nH]1 [Compound 216]
< 10,< 1,NC(=O)CNc1nc2ccc(N)cc2n1Cc1ccc(Oc2ccc(Cl)cc2)cc1 [Compound 217]
< 10,< 1,CCOC(=O)c1coc(-c2ccc(CNc3ccc4[nH]c(N(C)C)nc4c3)cc2)n1 [Compound 218]
< 10,< 1,CN(C)c1nc2cc(NCc3ccc(-c4ncco4)cc3)ccc2[nH]1 [Compound 220]
< 10,< 1,Cn1c(NCc2ccc(Oc3ccc(C(F)(F)F)nc3)cc2)nc2ccc(N)cc21 [Compound 223]
< 10,< 1,Cn1c(NCc2ccc(Oc3cccnc3)cc2)nc2ccc(N)cc21 [Compound 224]
< 10,< 1,CN(C)c1nc2ccc(N3CCC(C(=O)c4ccc(Cl)cn4)C3)cc2[nH]1 (stereo not shown) [Compound 230]
< 10,> 10,Nc1nc2ccc(N3CC(F)(F)C3)cc2n1Cc1ccc(Oc2ccc(Cl)cn2)cc1 [Compound 235]
< 10,< 1,CN(C)c1nc2cc(N3CCC(c4nc5ccc(Cl)cc5o4)C3)ccc2[nH]1 (stereo not shown) [Compound 236]
< 10,< 1,Nc1ccc2nc(N)n(Cc3ccc(Oc4ccc(Cl)cc4)nc3)c2c1 [Compound 240]
< 10,1 to 10,FC1(F)CN(c2ccc3nc(NCc4ccc(Oc5ccc(Cl)cc5)cc4)[nH]c3c2)C1 [Compound 242]
< 10,< 1,Nc1ccc2nc(N)n(CCc3ccc(Oc4ccc(Cl)cn4)cc3)c2c1 [Compound 244]
< 10,< 1,Nc1ccc2nc(N)n(Cc3ccc(Oc4nc5ccccc5o4)cc3)c2c1 [Compound 246]
< 10,< 1,CC(c1ccc(Oc2ccc(Cl)cn2)cc1)n1c(N)nc2ccc(N)cc21 (stereo not shown) [Compound 247]
< 10,< 1,Nc1ccc2nc(N)n(Cc3ccc(Oc4ccc(Cl)cn4)c(F)c3)c2c1 [Compound 248]
